# Results from US9072698B2, “Method for screening anti-cancer compounds inhibiting function of TM4SF5 and anti-cancer composition containing chalcone compounds” (Seoul National University Industry Foundation, priority 2006, dated 2015).
# Legend:
# [1] = system: HCT15 (colon adenocarcinoma); experiment: In vitro cytotoxicity, sulforhodamine B (SRB) method, HCT15; assay type: cell-based; conditions: Homo sapiens; HCT-15, SRB method; read-out: cytotoxicity (ED50) HCT-15
# Procedure, shortened: (§1)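 Cells grown in RPMI 1640 with 10% FCS at 37 °C, 5% CO2 were exposed to compounds at 30, 10, 3, 1 and 0.3 μg/ml final, with DMSO below 0.5%. Cytotoxicity was read by the standard NCI sulforhodamine B protein-staining method.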
# [2] = system: cells not expressing TM4SF5; experiment: Growth/proliferation of cells not expressing TM4SF5 (FIG. 51); assay type: cell-based
# cytosolic p27^kip1 = experiment: Immunofluorescent staining for p27^kip1 (FIG. 47); assay type: cell-based, human; conditions: 449Tp cells
# Protocol: (§2) When cells were transfected with given specific genes or infected with various viruses, they were used after being cultured for a given period of time. Cells treated with 10 mM lysophosphatidic acid (LPA) were used 1 hour after being attached to cover glasses. Immunofluorescent staining was carried out by preparing a slide for fluorescent analysis through incubation with a primary antibody against a target protein, washing out unbound antibody molecules, incubation with a fluorescein-conjugated secondary antibody and washing out unbound antibody molecules, and actin filament staininh was carried out with rhodamine-conjugated phalloidin. Antibodies used included antibodies against E-cadherin, β-catenin, FLAG, 4′-6-diamidino-2-phenylindole (DAPI), 5-brorno-2′-deoxy-uridine (BrdU), p27^kip1, ZO1 (zonula occludens-1), and the like. Immunofluorescent stained cover glasses were placed on slides and observed under a fluorescence microscope or a confocal laser scanning microscope.
# MMP-2 and MMP-9 = experiment: Gelatin zymography of culture supernatants (FIG. 68); assay type: cell-based, human; conditions: 20 μM, 24 hrs
# Protocol: The substrate degradation activity of secreted MMPs was investigated using gelatin zymography. Cell lines, indicated in FIG. 62, were cultured in 60-mm culture dishes. After 18 hrs, the medium was exchanged with serum-free medium, and cells were cultured for a further 24 hrs. Culture supernatants were collected to obtain secreted MMPs, and were then concentrated. Samples were electrophoresed on the running SDS-PAGE gel containing gelatin as a substrate for MMPs under reducing conditions. The gel was washed in 1% Triton X-100 to remove SDS, thus renaturing the enzymes. The gel was then incubated in enzyme reaction buffer (10 mM CaCl2, 0.15 M NaCl, 50 mM Tris-HCl, pH 7.5) at 37° C. for 18 hrs. The gel was stained with 0.5% Coomassie Brilliant Blue R250 for 3 hrs, and destained until clear bands appeared in 10% acetic acid and 30% methanol.
# In addition, Cp cells and Tp cells were treated with 20 μM of TSAHC for 24 hrs. The medium was exchanged with serum-free medium, and cells were cultured for a further 18 hrs. Culture supernatants were collected, concentrated, and analyzed using zymography, as described above.
# [3] = system: p27^kip1, pS^10p27^kip1, pY^577FAK and α-SMA; experiment: Western blotting for TM4SF5-mediated protein expression (FIG. 46); assay type: cell-based, human
# Protocol: Cell lysates, obtained under various experimental conditions, were prepared using RIPA buffer after cells under various conditions were washed with PBS. In special cases, employed cells were transfected with given expression vectors or infected with an adenovirus expressing an shRNA to TM4SF5 or a siRNA to p27^kip1. In addition, cells treated with 10 μM of cycloheximide for a given period of time were used. For such cell lysates, protein was quantified, and the same amounts of protein were used. Western blotting was performed using antibodies to phospho-Y^577FAK, phospho-Y^416Src, c-Src, RhoA, p120^ctn, β-catenin, pS^10p27^kip1, FAK, E-cadherin, ZO1, Rac1, p190RhoGAP, p27^kip1, GRAF, hKIS, desmoplakin, α-tubulin, α-catenin, and α-smooth muscle actin (α-SMA).
# TM4SF5-expressing cells = experiment: Immunostaining for DNA and the actin cytoskeleton, cell shape (FIG. 49); assay type: cell-based, human
# Protocol: as §2
# SNU449Tp cells [4] = experiment: BrdU immunofluorescent staining, S-phase progression (FIG. 44); assay type: cell-based, human; conditions: 20 μM, BrdU for 24 hrs
# Protocol: as §2
# SNU449Tp cells [5] = experiment: Comparison of TSAHC and analogues: cell morphology and multilayer growth by optical microscope (FIG. 69); assay type: cell-based, human; conditions: 20 μM, 24 hr treatment
# Protocol: TSAHC and its structural analogues were compared for their effects on TM4SF5-mediated events. Dimethyl sulfoxide (DMSO) and chalcone analogues, used in this test, have the following chemical structure.
# SNU449 Cp cells and SNU449Tp cells were plated onto 6-well plates and treated with the above compounds at 20 μM for 24 hrs. Cells were monitored for changes in cell morphology using an optical microscope.
# [6] = system: PC-3 (prostate adenocarcinoma); experiment: In vitro cytotoxicity, sulforhodamine B (SRB) method, PC-3; assay type: cell-based; conditions: Homo sapiens; PC-3, SRB method; read-out: cytotoxicity (ED50) PC-3
# Procedure, shortened: as §1
# RhoA = experiment: In vitro RhoA activity assay (FIG. 48); assay type: cell-based, human; conditions: TM4SF5-expressing cells
# Protocol: In order to investigate signaling pathways involved in the aforementioned morphological change, TM4SF5-expressing cell lines (SNU449Tp, T3, T7 and T16), established in Example 1, were assessed for expression levels of FAK phosphorylated at Tyr577 (pY^577FAK) and c-Src phosphorylated at Tyr 416 (pY^416cSrc), Rac1 activity and RhoA activity. Whole cell lysates were prepared and subjected to Western blot analysis, which was performed with each antibody against proteins indicated in FIGS. 3 and 5. The activity of RhoA and Rac1 was monitored by pull-down of RhoA and Rac1 from the cell lysates in vitro.
# SNU449Tp cells [7] = experiment: Cell growth over time of TM4SF5-expressing cells (FIG. 43, right); assay type: cell-based, human; conditions: TSAHC at given concentrations
# Protocol: Arrows indicate the overlapping nuclei of cells undergoing cell division. […] In addition, in order to measure the growth rates of the cells, 5×10^4 cells were plated onto 6-well plates and counted every 12 hrs. The results are expressed as a graph. […] This was observed even at a low cell density. That is, among cells at a low density, TM4SF5-expressing cells proliferated through cell division, during which two nuclei overlapped each other.
# SNU449Tp cells [8] = experiment: Immunofluorescent staining for E-cadherin and β-catenin, cell-cell contact (FIG. 45); assay type: cell-based, human; conditions: 20 μM
# Protocol: as §2
smiles,measurement,setting,value
"Cc1ccc(S(=O)(=O)Nc2ccc(C(=O)/C=C/c3ccc(O)cc3)cc2)cc1 [Compound 1, 4′-(p-toluenesulfonylamino)-4-hydroxychalcone]",IC50,[1],35 µg/mL
same,growth or proliferation of cells not expressing TM4SF5,[2],did not affect cells not expressing TM4SF5
same,cytosolic p27^kip1 levels,cytosolic p27^kip1,decrease in cytosolic p27^kip1 levels
same,TM4SF5-mediated activity of MMPs,MMP-2 and MMP-9,inhibit the TM4SF5-mediated activity of MMPs
same,"expression levels of p27^kip1, pS^10p27^kip1, pY^577FAK and α-SMA",[3],"effectively reduce TM4SF5-mediated high expression levels of p27^kip1, pS^10p27^kip1, pY^577FAK and α-SMA"
same,cell shape,TM4SF5-expressing cells,returned the elongated cell shape to the same polygonal shape as that of TM4SF5-null control cells
same,S-phase progression,SNU449Tp cells [4],inhibited S-phase progression
same,TM4SF5-mediated multilayer growth,SNU449Tp cells [5],"effectively stimulate the growth of TM4SF5-expressing cells, not in a multilayer but in a monolayer arrangement"
same,cell morphology,SNU449Tp cells [5],changed the cell morphology into the same shape as that of SNU449 control cells not expressing TM4SF5
same,IC50,[6],37 µg/mL
same,RhoA activity,RhoA,restored the reduced RhoA activity in TM4SF5-expressing cells
same,growth over time of TM4SF5-expressing cells,SNU449Tp cells [7],reduced linear growth over time in a manner dependent on TSAHC concentrations
same,cell-cell contact,SNU449Tp cells [8],restored cell-cell contact
